# In ChEMBL document CHEMBL1201862, “PubChem BioAssay data set” (2004):
# Active and inactive are the calls of the source.
# Columns and labels:
# [1] = biological target: T1, E3 ubiquitin-protein ligase XIAP (Homo sapiens, UniProt P98170); assay: Counter Screen using XIAP-Bir3 for Chemical Antagonists of Bir1/2 domains of IAP-family anti-apoptotic proteins. [Related pubchem assays (depositor defined):AID1018, AID1449, AID1514, AID1638, AID1749, AID1750, AID488957, AID488963]
# [2] = biological target: T1, E3 ubiquitin-protein ligase XIAP; assay: XIAP antagonists, biochemical, IAP family, fluorescence polarization (AID 1018); format: functional
# [3] = inhibition of K1F phage lysis, E. coli UTI89, bacterial capsule biogenesis inhibitors, alamar blue (AID 488966); format: functional
# BJ [4] = assay: cytotoxicity toward BJ-TERT-LT-ST fibroblasts, dose response, cell-based, RAS-independent, luminescence (AID 1935); format: functional; settings: Homo sapiens;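 further: BJ fibroblasts immortalized with TERT plus LT and ST oncogenes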
# [5] = biological target: Envelope glycoprotein gp160 (Human immunodeficiency virus 1, UniProt Q6QLK5); assay: inhibitors of HIV fusion peptide binding, primary screen, biochemical, uHTS, fluorescence dequenching (AID 1986)
# BJ [6] = assay: cytotoxicity toward BJ-TERT fibroblasts, dose response, cell-based, RAS-independent, luminescence (AID 1933); format: functional; settings: Homo sapiens
# Genome polyprotein = Genome polyprotein (dengue virus type 2, UniProt P29990); assay: Dengue-2 NS5 methyltransferase inhibitors, primary screen, biochemical, confirmation dose response (AID 588689); format: functional
# BJ [7] = assay: cells; format: functional, cell-based; settings: Homo sapiens
# [8] = cytotoxicity toward DRD oncogenic fibroblasts, dose response, cell-based, non-viral oncogenic, luminescence (AID 1934); format: functional; settings: Homo sapiens
# Beta Lactamase = Beta Lactamase (Pseudomonas aeruginosa, UniProt Q932Y6); assay: beta-lactamase reporter inhibitor potency, dose response, artefact control for NOD2-RIPK2 interaction inhibitor project, BLA reporter cells, FRET fluorescence (AID 651552); format: functional, cell-based
# Saccharomyces cerevisiae = assay: NALP1 inhibitor project selectivity study, Caspase-1/ASC signal blockade IC50 in S. cerevisiae (AID 488863); format: functional, organism-based
# [9] = biological target: Luciferin 4-monooxygenase (Photinus pyralis, UniProt P08659); assay: firefly luciferase enzyme inhibitors, dose response, biochemical, luminescence (AID 1891)
# [10] = HepG2 cell cytotoxicity, dose response, cytotoxicity control for Shn3 inhibitor project, CellTiter-Glo, cherry-picked (AID 624134); format: functional, cell-based
# [11] = control 3'UTR Renilla luciferase suppression, dose response, counter-screen for Shn3 inhibitor project, cell-based, Clone20-Shn3RL, cherry-picked (AID 624133); format: functional
# [12] = Luminescence Cell-Based Dose Confirmation HTS to Identify Inhibitors of Platelet Dense Granule Release. [Related pubchem assays: 1663 (Primary HTS), 1678 (Summary of Project)]; format: functional
# [13] = Shn3 3'UTR reporter inhibitors, dose response, cell-based, Clone20 osteoblasts, firefly luciferase, cherry-picked (AID 624132); format: functional;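 further: firefly luciferase luminescence from reporter carrying the Shn3 3'UTR in osteoblasts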
# [14] = Fluorescence-based cell-based high throughput dose response assay for inhibitors of the interaction of nucleotide-binding oligomerization domain containing 2 (NOD2) and the receptor-interacting serine-threonine kinase 2 (RIPK2).; format: functional; settings: Homo sapiens
# Beta-galactosidase = Beta-galactosidase (Escherichia coli, UniProt Q8VNN2); assay: beta-galactosidase enzyme inhibitors and activators, dose response, artefact control for CCR6 antagonist project, biochemical, E. coli enzyme, set 3 (AID 504712); format: functional
# [15] = biological target: NACHT, LRR and PYD domains-containing protein 1 (Homo sapiens, UniProt Q9C000); assay: NALP1 inhibitors in yeast, dose response, luminescent (AID 488860); format: functional
# HEK293 [16] = assay: cells; settings: Homo sapiens
# HEK293 [17] = assay: cells; format: functional, cell-based; settings: Homo sapiens
# HEK293 [18] = assay: cells; format: functional, cell-based; settings: Homo sapiens; remark: listed apart in the source
# Tumor necrosis factor = Tumor necrosis factor (Homo sapiens, UniProt P01375); assay: TNFa-triggered NF-kB activation inhibitors, SAR follow-up, cell-based, revised (AID 2337); format: functional
# [19] = biological target: Nucleotide-binding oligomerization domain-containing protein 2 (Homo sapiens, UniProt Q9HC29); assay: PubChem AID 2334; format: functional
# HEK293 [20] = assay: NOD1 signaling inhibitors, primary screen, cell-based, luminescence, uHTS (AID 1578); format: functional; settings: Homo sapiens
# HEK293 [21] = assay: NOD2 signaling inhibitors in MDP-stimulated cells, cell-based, uHTS, luminescence (AID 2001); format: functional; settings: Homo sapiens
# [22] = biological target: T2, Nucleotide-binding oligomerization domain-containing protein 1 (Homo sapiens, UniProt Q9Y239); assay: NOD1 signaling inhibitors, SAR follow-up, revised (AID 2333); format: functional
# T2 sequence (Q9Y239 whole entry): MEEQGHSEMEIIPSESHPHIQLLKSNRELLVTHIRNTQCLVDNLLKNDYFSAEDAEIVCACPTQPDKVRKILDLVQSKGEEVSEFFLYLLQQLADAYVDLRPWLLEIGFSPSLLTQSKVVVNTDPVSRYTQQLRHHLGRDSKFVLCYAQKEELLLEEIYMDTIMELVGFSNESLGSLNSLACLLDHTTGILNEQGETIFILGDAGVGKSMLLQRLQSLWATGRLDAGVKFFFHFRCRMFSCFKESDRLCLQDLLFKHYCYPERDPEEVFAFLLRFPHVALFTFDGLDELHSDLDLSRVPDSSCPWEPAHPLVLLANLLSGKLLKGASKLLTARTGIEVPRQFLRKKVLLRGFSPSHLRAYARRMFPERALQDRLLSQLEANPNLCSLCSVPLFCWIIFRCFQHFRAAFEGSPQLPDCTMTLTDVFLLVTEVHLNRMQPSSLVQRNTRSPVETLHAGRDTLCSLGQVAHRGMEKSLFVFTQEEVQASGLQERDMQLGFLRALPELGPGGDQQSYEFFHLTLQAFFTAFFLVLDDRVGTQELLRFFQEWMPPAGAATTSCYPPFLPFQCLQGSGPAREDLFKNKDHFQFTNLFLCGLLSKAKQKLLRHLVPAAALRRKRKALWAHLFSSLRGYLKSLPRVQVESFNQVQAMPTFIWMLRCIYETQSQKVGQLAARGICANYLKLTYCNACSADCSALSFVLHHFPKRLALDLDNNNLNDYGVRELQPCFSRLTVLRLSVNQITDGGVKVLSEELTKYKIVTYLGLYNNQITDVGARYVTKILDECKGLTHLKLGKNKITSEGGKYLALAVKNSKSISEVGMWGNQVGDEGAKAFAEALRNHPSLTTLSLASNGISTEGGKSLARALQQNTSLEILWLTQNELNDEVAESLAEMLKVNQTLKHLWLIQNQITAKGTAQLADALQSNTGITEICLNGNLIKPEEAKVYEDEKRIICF
# [23] = biological target: Intestinal-type alkaline phosphatase (Mus musculus, UniProt P24822); assay: PubChem AID 488874; format: functional
# [24] = biological target: T3, Intestinal-type alkaline phosphatase (Homo sapiens, UniProt P09923); assay: human IAP activators, dose response, biochemical, luminescent, uHTS hits, set 2 (AID 488817); format: functional;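 further: potency of activators that raise enzyme activity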
# [25] = biological target: T4, Alkaline phosphatase, tissue-nonspecific isozyme (Homo sapiens, UniProt P05186); assay: TNAP enzyme activators, dose response, selectivity assay for human IAP activator project, biochemical, TNAP isozyme, human IAP uHTS hits (AID 488886); format: functional;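 further: potency of compounds raising TNAP activity as a selectivity check on IAP activators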
# T4 sequence (P05186 whole entry): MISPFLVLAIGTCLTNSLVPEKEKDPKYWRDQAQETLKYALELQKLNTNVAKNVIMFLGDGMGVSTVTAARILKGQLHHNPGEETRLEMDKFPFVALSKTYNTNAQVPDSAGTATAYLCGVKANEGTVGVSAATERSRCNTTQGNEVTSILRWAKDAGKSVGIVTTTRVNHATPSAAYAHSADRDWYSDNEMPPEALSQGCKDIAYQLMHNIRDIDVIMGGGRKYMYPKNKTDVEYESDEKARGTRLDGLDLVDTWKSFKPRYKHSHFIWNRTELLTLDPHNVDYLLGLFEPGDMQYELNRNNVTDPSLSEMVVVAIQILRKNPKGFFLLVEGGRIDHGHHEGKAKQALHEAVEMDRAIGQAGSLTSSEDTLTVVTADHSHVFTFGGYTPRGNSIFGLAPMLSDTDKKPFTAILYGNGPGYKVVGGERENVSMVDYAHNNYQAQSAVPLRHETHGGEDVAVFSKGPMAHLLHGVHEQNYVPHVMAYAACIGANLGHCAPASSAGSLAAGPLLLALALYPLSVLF
# [26] = biological target: T3, Intestinal-type alkaline phosphatase; assay: human intestinal alkaline phosphatase activators, dose response, biochemical, luminescence, uHTS hits (AID 463120); format: functional
# [27] = biological target: Polyadenylate-binding protein 1 (Homo sapiens, UniProt P11940); assay: PABP inhibition in translation initiation, SAR follow-up (AID 435018); format: functional
# [28] = biological target: Eukaryotic translation initiation factor 4H (Homo sapiens, UniProt Q15056); assay: eIF4H inhibition in translation initiation, SAR follow-up (AID 435011); format: functional
# [29] = biological target: DNA dC->dU-editing enzyme APOBEC-3G (Homo sapiens, UniProt Q9HC16); assay: Dose Response confirmation of small molecule APOBEC3G DNA Deaminase Inhibitors via a fluorescence-based single-stranded DNA deaminase assay. [Related pubchem assays (depositor defined):AID493012, AID493028]; format: functional
# [30] = biological target: DNA dC->dU-editing enzyme APOBEC-3A (Homo sapiens, UniProt P31941); assay: APOBEC3A DNA deaminase inhibitors, dose response, biochemical (AID 504722); format: functional
# T3 sequence (P09923 whole entry): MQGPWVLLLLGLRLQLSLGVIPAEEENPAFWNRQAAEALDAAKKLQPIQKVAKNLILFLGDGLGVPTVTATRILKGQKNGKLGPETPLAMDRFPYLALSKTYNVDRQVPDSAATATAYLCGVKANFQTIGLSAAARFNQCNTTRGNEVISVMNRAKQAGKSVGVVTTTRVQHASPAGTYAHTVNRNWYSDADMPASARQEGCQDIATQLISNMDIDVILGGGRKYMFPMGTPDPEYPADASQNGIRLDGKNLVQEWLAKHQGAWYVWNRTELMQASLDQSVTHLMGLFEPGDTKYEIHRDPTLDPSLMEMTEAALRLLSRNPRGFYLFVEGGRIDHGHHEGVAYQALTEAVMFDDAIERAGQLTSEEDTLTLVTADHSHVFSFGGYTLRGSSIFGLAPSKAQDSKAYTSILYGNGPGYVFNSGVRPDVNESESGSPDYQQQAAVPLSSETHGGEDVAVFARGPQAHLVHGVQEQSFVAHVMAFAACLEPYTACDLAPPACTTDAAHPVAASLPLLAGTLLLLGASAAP
# T1 sequence (P98170 whole entry): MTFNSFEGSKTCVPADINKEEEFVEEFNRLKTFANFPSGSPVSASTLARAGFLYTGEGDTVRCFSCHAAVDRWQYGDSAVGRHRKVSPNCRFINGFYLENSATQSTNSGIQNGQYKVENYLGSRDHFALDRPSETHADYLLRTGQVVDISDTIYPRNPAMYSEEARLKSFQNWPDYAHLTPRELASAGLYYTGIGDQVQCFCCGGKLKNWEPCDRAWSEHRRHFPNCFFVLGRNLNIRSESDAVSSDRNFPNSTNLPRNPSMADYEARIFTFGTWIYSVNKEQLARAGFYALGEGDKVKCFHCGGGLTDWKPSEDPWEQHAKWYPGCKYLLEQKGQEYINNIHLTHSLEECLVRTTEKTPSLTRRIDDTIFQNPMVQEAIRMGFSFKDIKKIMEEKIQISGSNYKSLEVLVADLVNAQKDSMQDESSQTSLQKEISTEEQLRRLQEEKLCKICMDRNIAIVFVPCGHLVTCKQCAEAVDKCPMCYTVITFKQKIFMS
# Sequence of DNA dC->dU-editing enzyme APOBEC-3G (Q9HC16 whole entry): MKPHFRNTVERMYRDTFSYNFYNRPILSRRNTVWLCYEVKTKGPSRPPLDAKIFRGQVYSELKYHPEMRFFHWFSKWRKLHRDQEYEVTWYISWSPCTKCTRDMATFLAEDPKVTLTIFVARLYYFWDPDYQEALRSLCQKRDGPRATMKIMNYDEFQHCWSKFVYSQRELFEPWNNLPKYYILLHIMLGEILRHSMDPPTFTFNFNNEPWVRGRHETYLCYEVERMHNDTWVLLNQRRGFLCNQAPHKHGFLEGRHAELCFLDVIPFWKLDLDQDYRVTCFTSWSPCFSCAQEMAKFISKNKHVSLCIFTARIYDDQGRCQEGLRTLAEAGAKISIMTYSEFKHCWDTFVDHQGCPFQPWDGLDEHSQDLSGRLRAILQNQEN
# Sequence of Beta Lactamase (Q932Y6 whole entry): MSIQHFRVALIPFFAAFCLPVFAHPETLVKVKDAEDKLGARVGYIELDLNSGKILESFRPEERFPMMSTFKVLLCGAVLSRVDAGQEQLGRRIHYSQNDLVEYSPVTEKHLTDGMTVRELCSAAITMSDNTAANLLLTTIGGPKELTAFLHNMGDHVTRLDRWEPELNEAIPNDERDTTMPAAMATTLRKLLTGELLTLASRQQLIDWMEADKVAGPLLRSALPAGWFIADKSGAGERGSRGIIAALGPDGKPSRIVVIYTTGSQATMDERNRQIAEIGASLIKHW
# Sequence of Envelope glycoprotein gp160 (Q6QLK5 whole entry, the tested form may be a part): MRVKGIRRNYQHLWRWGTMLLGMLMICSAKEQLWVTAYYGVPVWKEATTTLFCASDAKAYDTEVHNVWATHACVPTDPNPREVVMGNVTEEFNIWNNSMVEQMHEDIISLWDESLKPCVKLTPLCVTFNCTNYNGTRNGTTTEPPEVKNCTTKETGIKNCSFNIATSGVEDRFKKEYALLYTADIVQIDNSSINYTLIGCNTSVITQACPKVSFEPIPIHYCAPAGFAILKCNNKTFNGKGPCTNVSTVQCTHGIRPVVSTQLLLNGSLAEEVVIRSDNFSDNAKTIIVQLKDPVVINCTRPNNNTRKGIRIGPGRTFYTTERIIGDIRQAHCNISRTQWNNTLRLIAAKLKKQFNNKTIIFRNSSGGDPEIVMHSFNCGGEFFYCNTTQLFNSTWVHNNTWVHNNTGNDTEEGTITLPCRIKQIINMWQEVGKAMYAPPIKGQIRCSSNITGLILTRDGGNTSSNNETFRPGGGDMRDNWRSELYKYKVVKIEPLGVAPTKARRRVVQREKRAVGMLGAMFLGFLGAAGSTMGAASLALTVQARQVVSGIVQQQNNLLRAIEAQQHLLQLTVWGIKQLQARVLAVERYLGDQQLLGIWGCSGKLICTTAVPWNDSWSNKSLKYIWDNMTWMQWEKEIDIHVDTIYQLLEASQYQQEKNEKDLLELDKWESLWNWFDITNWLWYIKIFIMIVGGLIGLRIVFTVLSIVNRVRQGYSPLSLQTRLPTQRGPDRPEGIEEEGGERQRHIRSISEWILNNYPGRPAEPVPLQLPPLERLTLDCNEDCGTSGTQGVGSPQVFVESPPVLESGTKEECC
# Sequence of Luciferin 4-monooxygenase (P08659 whole entry): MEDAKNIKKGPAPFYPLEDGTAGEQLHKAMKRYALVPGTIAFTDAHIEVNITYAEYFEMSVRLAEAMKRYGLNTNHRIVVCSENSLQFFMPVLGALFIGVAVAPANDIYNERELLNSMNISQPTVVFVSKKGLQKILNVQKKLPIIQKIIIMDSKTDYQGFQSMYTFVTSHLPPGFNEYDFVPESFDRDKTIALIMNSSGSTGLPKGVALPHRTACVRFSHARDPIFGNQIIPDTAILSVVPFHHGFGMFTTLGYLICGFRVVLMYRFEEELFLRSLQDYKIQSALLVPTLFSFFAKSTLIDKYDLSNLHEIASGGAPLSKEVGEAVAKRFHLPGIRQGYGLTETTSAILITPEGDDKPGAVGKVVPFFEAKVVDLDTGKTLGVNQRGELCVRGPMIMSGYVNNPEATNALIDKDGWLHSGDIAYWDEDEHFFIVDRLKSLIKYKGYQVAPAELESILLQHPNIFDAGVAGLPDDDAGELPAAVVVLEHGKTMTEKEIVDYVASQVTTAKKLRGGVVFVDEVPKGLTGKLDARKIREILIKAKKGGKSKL
# Sequence of Beta-galactosidase (Q8VNN2 whole entry, the tested form may be a part): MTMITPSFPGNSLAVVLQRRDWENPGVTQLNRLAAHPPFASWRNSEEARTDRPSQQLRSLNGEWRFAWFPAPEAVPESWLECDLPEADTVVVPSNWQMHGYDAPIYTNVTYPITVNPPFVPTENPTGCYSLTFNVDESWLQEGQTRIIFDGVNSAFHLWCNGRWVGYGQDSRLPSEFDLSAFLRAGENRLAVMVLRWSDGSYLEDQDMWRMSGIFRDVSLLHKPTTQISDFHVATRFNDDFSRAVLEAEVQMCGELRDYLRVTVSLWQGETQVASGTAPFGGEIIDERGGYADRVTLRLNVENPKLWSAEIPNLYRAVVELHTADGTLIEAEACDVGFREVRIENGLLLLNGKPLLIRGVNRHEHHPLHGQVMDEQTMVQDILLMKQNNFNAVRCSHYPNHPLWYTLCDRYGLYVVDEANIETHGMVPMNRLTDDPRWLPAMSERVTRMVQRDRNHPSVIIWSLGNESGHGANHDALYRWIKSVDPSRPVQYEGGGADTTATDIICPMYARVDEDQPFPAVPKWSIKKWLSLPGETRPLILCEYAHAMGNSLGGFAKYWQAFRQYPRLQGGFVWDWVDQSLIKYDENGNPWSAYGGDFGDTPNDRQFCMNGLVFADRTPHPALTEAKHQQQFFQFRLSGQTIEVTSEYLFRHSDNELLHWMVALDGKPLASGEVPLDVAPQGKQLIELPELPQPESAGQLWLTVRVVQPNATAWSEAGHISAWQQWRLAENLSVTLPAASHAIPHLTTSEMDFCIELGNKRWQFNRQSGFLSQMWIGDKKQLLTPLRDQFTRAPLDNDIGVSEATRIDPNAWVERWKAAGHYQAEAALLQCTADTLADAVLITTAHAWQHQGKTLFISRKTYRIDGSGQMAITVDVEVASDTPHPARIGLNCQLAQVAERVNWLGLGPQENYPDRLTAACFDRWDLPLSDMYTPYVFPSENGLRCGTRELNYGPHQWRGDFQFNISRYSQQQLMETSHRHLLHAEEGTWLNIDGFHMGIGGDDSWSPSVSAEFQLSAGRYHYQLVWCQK
# Sequence of Polyadenylate-binding protein 1 (P11940 whole entry): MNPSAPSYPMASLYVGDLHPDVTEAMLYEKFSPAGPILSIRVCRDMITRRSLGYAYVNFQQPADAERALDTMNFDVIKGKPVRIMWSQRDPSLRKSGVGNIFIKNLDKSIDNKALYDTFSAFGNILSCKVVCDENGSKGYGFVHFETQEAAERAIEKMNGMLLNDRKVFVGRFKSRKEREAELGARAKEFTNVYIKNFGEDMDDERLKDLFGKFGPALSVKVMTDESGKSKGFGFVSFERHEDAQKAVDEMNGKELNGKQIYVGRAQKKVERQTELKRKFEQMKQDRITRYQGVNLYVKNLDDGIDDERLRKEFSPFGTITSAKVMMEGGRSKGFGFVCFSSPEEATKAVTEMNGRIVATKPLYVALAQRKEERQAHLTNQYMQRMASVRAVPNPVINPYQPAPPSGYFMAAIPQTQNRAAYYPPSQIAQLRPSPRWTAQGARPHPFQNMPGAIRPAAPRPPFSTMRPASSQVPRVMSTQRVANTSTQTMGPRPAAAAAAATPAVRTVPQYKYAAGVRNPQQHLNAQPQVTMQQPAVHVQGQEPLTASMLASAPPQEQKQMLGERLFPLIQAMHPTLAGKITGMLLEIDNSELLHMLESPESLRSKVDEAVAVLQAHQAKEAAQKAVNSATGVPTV
structure (smiles),measurement,setting,value
COc1ccc(-c2nnc(NC(=O)c3cc(C)on3)s2)cc1,IC50,[1],> 100 µM (inactive)
same,IC50,[2],> 100 µM (not active)
same,IC50,[3],> 75 µM (active)
O=C(O)CCN1C(=O)/C(=C\c2cccc(Oc3ccccc3)c2)SC1=S,EC50,BJ [4],> 150 µM (inconclusive)
same,IC50,[5],26.8 µM (active)
same,EC50,BJ [6],> 150 µM (not active)
same,IC50,Genome polyprotein,37.4 µM (active)
same,EC50,BJ [7],> 150 µM (not active)
same,EC50,[8],> 150 µM (not active)
O=C1CC(Sc2nnnn2-c2ccccc2)C(=O)N1c1cccc(Cl)c1 (stereo not given),IC50,Beta Lactamase,12.6 µM (inactive)
same,IC50,Saccharomyces cerevisiae,5.13 µM (active)
same,EC50,[9],> 112 µM (not active)
same,AC50,[10],24.5 µM (active)
same,AC50,[11],8.88 µM (active)
same,EC50,[12],19.1 µM (active)
same,AC50,[13],8.53 µM (active)
same,IC50,[14],2.81 µM (active)
same,IC50,Beta-galactosidase,> 66.6 µM (inactive)
same,IC50,[15],5.83 µM (active)
NC(=O)C1CCN(c2ccc(S(=O)(=O)N3CCC(Cc4ccccc4)CC3)cn2)CC1,IC50,HEK293 [16],> 20 µM (inactive)
same,IC50,HEK293 [17],> 20 µM (inactive)
same,IC50,HEK293 [18],> 20 µM (inactive)
same,IC50,Tumor necrosis factor,12.4 µM (active)
same,IC50,[19],9.14 µM (active)
same,EC50,HEK293 [20],4.32 µM (active)
same,IC50,HEK293 [21],> 20 µM (inactive)
same,IC50,[22],5.76 µM (active)
CN(Cc1ccccc1)C(=O)c1nc[nH]c1C(=O)Nc1nccs1,IC50,[23],74.8 µM (active)
same,EC50,[24],15.8 µM (active)
same,EC50,[25],16.6 µM (active)
same,EC50,[26],10.1 µM (active)
COc1cc(/C=N\NC(=O)c2ccccc2O)ccc1OCC(=O)Nc1ccc(C)c(C)c1,IC50,[27],> 100 µM (inactive)
same,IC50,[28],34.6 µM (active)
O=[N+]([O-])c1ccccc1/C=N/n1c(S)nnc1-c1ccccc1,IC50,[29],4.25 µM (active)
same,IC50,[30],> 100 µM (inactive)
